From patent US6696495B2, “Treatment of disorders secondary to organic impairments” (Snowden Pharmaceuticals, LLC, priority 1998, dated 2004)
Where two headings read alike, the source gives them in different places.

Assays:
[1] = system: Tourette's Tics, Asocial Behavior, and Relief of Hyposexuality; conditions: for response to other medications: before sibutramine
[2] = system: Reflex Sympathetic Dystrophy Syndrome (RSDS); Complex Regional Pain Syndrome (CRPS); assay: Case history 27; type: in vivo, human
[3] = system: Severe Atypical Psychosis; assay: Case history 1, Sibutramine Patient No. 97; type: in vivo, human
[4] = system: Non-Tourette's tics, obsessive-compulsive rituals, and attention deficit hyperactive disorder (ADHD); conditions: before sibutramine
[5] = system: Sexual Function, ADD, and Rage Outbursts; assay: Case history 3, Sibutramine Patient No. 100; type: in vivo, human
[6] = system: Sexual Obsessive-Compulsive Behavior, ADD and Executive Function; assay: Case history 6, Sibutramine Patient No. 77; type: in vivo, human; conditions: before sibutramine
[7] = system: Severe Post-Traumatic Stress Reaction
Description: Finally, this patient was taken off of fluoxetine 20 mg when sibutramine treatment was initiated.

[8] = system: Asocial Behavior, Violence, and Hyposexuality; assay: Case history 10, Sibutramine Patient No. 54; type: in vivo, human; conditions: before sibutramine
[9] = system: Tourette's Disease Tics, Violence, and ADHD; assay: Case history 8, Sibutramine Patient No. 47; type: in vivo, human
[10] = system: Sexual Gender Choice Change; assay: Case history 7, Sibutramine Patient No. 99; type: in vivo, human
[11] = system: frontal lobe executive function, ADHD, and hyposexuality; conditions: human, in vivo
[12] = system: Huntington's Disease; assay: Case history 12, Sibutramine Patient No. 113; type: in vivo, human; conditions: after worsening of symptoms
[13] = system: Sexual Function and ADD; assay: Case history 4, Sibutramine Patient No. 109; type: in vivo, human; conditions: before sibutramine
[14] = system: Fibromyalgia—Chronic Fatigue Syndrome; conditions: before sibutramine
[15] = mood swings, cognitive, anger, sexual problems, before sibutramine
[16] = over six years before sibutramine
[17] = depression, impulsive behaviors, mood swings, epileptic symptoms

## CN1CCN(C2=Nc3cc(Cl)ccc3Nc3ccccc32)CC1 [Clozapine]
[1]; human, in vivo
  fall of IQ: 30 points

## CN(C)CCC=C1c2ccccc2CCc2ccccc21 [Elavil]
[2]; before sibutramine
  response to other treatments: helped their sleep and slightly increased their appetite but did not affect the pain

## NCC1(CC(=O)O)CCCCC1 [Neurontin]
[2]; before sibutramine
  response to other treatments: ineffective

## NC12CC3CC(CC(C3)C1)C2 [amantadine]
[3]; treatments before sibutramine
  response of psychosis symptoms to other medications: without success

## CC(N)Cc1ccccc1 (stereo not drawn) [amphetamine]
[4]
  response to other medications: helped their hyperactivity and OCD symptoms in part

## CC(NC(C)(C)C)C(=O)c1cccc(Cl)c1 (stereo not drawn) [bupropion]
[5]; [15]
  response to other medications: unsuccessful
[6]
  response to other medications: unsuccessful

## O=C1CC2(CCCC2)CC(=O)N1CCCCN1CCN(c2ncccn2)CC1 [buspirone]
[3]; treatments before sibutramine
  response of psychosis symptoms to other medications: without success
[7]; human, in vivo
  response of PTSD symptoms to other medications: unsuccessful

## OC(O)C(Cl)(Cl)Cl [chloral hydrate]
[8]
  response to other medications: without any changes in their speech or mode of communication

## CN(C)CCCN1c2ccccc2CCc2ccc(Cl)cc21 [clomipramine]
[9]; [16]
  response to other medications: without any good results
[1]
  response to other medications: without success

## Clc1cccc(Cl)c1N=C1NCCN1 [clonidine]
[9]; [16]
  response to other medications: without any good results

## CNCCCN1c2ccccc2CCc2ccccc21 [desipramine]
[5]; [15]
  response to other medications: not helpful
[9]; [16]
  response to other medications: without any good results

## CCN[C@@H](C)Cc1cccc(C(F)(F)F)c1 [dextrofenfluramine]
[1]
  response to other medications: without success

## COc1cc2c(cc1OC)C(=O)C(CC1CCN(Cc3ccccc3)CC1)C2 (stereo not drawn) [donepezil]
[5]; [15]
  response to other medications: not helpful
[10]; [17]
  response to other medications: refractory
[9]; [16]
  response to other medications: helped their cognitive problems without aggravating their tics or their outbursts
[1]
  response to other medications: without success
[4]
  response to other medications: unsuccessful
[11]
  response to other medications: unsuccessful

## NC(=O)OCC(COC(N)=O)c1ccccc1 [felbamate]
[9]; [16]
  response to other medications: without any good results
[1]
  response to other medications: without success

## CCNC(C)Cc1cccc(C(F)(F)F)c1 (stereo not drawn) [fenfluramine]
[5]; [15]
  response to other medications: not helpful
[9]; [16]
  response to other medications: without any good results
[8]
  response to other medications: without any changes in their speech or mode of communication
[7]; before sibutramine
  response of PTSD symptoms to other medications: unsuccessful
[1]
  response to other medications: without success

## OCCN1CCN(CCCN2c3ccccc3Sc3ccc(C(F)(F)F)cc32)CC1 [fluphenazine]
[1]
  response to other medications: without success

## COCCCC/C(=N\OCCN)c1ccc(C(F)(F)F)cc1 [fluvoxamine]
[1]
  response to other medications: without success
[4]
  response to other medications: helped their hyperactivity and OCD symptoms in part

## NCC1(CC(=O)O)CCCCC1 [gabapentin]
[10]; [17]
  response to other medications: refractory
[9]; [16]
  response to other medications: without any good results
[12]
  response to previous medications: no longer responded
[1]
  response to other medications: without success

## O=C(CCCN1CCC(O)(c2ccc(Cl)cc2)CC1)c1ccc(F)cc1 [haloperidol]
[3]; treatments before sibutramine
  response of psychosis symptoms to other medications: without success
[6]
  response to other medications: unsuccessful
[8]
  response to other medications: without any changes in their speech or mode of communication
[1]
  response to other medications: without success

## OCCOCCN1CCN(C(c2ccccc2)c2ccc(Cl)cc2)CC1 (stereo not drawn) [hydroxyzine]
[9]; [16]
  response to other medications: without any good results

## CN(C)CCCN1c2ccccc2CCc2ccccc21 [imipramine]
[5]; [15]
  response to other medications: unsuccessful
[10]; [17]
  response to other medications: refractory

## Nc1nnc(-c2cccc(Cl)c2Cl)c(N)n1 [lamotrigine]
[5]; [15]
  response to other medications: not helpful
[13]
  response to other medications: unsuccessful
[9]; [16]
  response to other medications: without any good results
[1]
  response to other medications: without success
[4]
  response to other medications: without success
[11]
  response to other medications: unsuccessful

## CCN(CC)CC(=O)Nc1c(C)cccc1C [lidocaine]
[2]; in vivo
  response to other treatments: numbed the area

## O=C([O-])[O-].[Li+].[Li+] [lithium carbonate]
[5]; human, in vivo
  response to other medications: unsuccessful and made their obesity worse
[10]; human, in vivo
  response to other medications: refractory

## O=C1Nc2ccc(Cl)cc2C(c2ccccc2Cl)=NC1O (stereo not drawn) [lorazepam]
[3]; treatments before sibutramine
  response of psychosis symptoms to other medications: without success

## COc1ccc2cc(CCC(C)=O)ccc2c1 [nabumetone]
[14]
  response to other medications: unsuccessfully

## CC(C)(C)NCC(O)COc1cccc2c1CC(O)C(O)C2 (stereo not drawn) [nadolol]
[8]
  response to other medications: without any changes in their speech or mode of communication

## CNCCC=C1c2ccccc2CCc2ccccc21 [nortriptyline]
[5]; human, in vivo
  response to other medications: unsuccessful

## O=C(O)CCc1nc(-c2ccccc2)c(-c2ccccc2)o1 [oxaprozin]
[14]
  response to other medications: unsuccessfully

## NC(=O)N1c2ccccc2CC(=O)c2ccccc21 [oxcarbazepine]
[7]; before sibutramine
  response of PTSD symptoms to other medications: unsuccessful

## Fc1ccc([C@@H]2CCNC[C@H]2COc2ccc3c(c2)OCO3)cc1 [paroxetine]
[3]; treatments before sibutramine
  response of psychosis symptoms to other medications: without success

## NC1=NC(=O)C(c2ccccc2)O1 (stereo not drawn) [pemoline]
[7]; before sibutramine
  response of PTSD symptoms to other medications: unsuccessful

## CC(C)(N)Cc1ccccc1 [phenteramine]
[5]; [15]
  response to other medications: helped them lose a small amount of weight but did not affect their other problems

## O=C1NC(=O)C(c2ccccc2)(c2ccccc2)N1 [phenytoin]
[9]; [16]
  response to other medications: without any good results
[7]; before sibutramine
  response of PTSD symptoms to other medications: unsuccessful

## CC(C)NCC(O)COc1cccc2ccccc12 (stereo not drawn) [propranolol]
[13]
  response to other medications: unsuccessful
[9]; [16]
  response to other medications: without any good results
[8]
  response to other medications: without any changes in their speech or mode of communication

## OCCOCCN1CCN(C2=Nc3ccccc3Sc3ccccc32)CC1 [quetiapine]
[3]; treatments before sibutramine
  response of psychosis symptoms to other medications: did not control their symptoms
[9]; [16]
  response to other medications: without any good results
[8]
  response to other medications: without any changes in their speech or mode of communication

## Cc1nc2n(c(=O)c1CCN1CCC(c3noc4cc(F)ccc34)CC1)CCCC2 [risperidone]
[3]; human, in vivo
  response of psychosis symptoms to other medications: without success
[9]; human, in vivo
  response to other medications: without any good results

## CCCN(CCC)CCc1cccc2c1CC(=O)N2 [ropinirole]
[4]
  response to other medications: unsuccessful

## C#CCN(C)[C@H](C)Cc1ccccc1 [selegiline]
[5]; [15]
  response to other medications: not helpful
[9]; [16]
  response to other medications: without any good results
[1]
  response to other medications: without success
[11]
  response to other medications: unsuccessful

## CN[C@H]1CC[C@@H](c2ccc(Cl)c(Cl)c2)c2ccccc21 [sertraline]
[10]; [17]
  response to other medications: refractory

## CCCc1nn(C)c2c(=O)[nH]c(-c3cc(S(=O)(=O)N4CCN(C)CC4)ccc3OCC)nc12 [sildenafil]
[5]; [15]
  response to other medications: did not help their sexual libido
[13]
  response to other medications: only increased sexual function but not libido
[11]
  response to other medications: helped correct the mechanical dysfunction but not the libido

## Nc1c2c(nc3ccccc13)CCCC2 [tacrine]
[9]; [16]
  response to other medications: without any good results
[1]
  response to other medications: without success

## CSc1ccc2c(c1)N(CCC1CCCCN1C)c1ccccc1S2 (stereo not drawn) [thioridazine]
[8]
  response to other medications: without any changes in their speech or mode of communication

## N[C@@H](Cc1cc(I)c(Oc2cc(I)c(O)c(I)c2)c(I)c1)C(=O)O [thyroxine]
[5]; [15]
  response to other medications: not helpful

## COc1cccc(C2(O)CCCCC2CN(C)C)c1 (stereo not drawn) [tramadol]
[14]
  response to other medications: unsuccessfully

## CN1CCN(CCCN2c3ccccc3Sc3ccc(C(F)(F)F)cc32)CC1 [trifluoperazine]
[3]; treatments before sibutramine
  response of psychosis symptoms to other medications: without success

## CCCC(CCC)C(=O)O [valproic acid]
[5]; [15]
  response to other medications: not helpful
[13]
  response to other medications: helped their anger attacks but interfered with their concentration considerably and did not help their sexual problems
[6]
  response to other medications: unsuccessful
[9]; [16]
  response to other medications: without any good results
[7]; before sibutramine
  response of PTSD symptoms to other medications: unsuccessful
[1]
  response to other medications: without success

## COC(=O)[C@@H]1[C@H]2C[C@H]3c4[nH]c5ccccc5c4CCN3C[C@@H]2CC[C@@H]1O [yohimbine]
[13]
  response to other medications: unsuccessful
